In patent US7501281B2, “Compositions, methods and kits related to thrombin, Notch signaling and stamatogenesis and growth of stem cells” (Maine Medical Center Research Institute, priority 2003, dated 2009):

Key:
Format in all cases: cell-based, murine
[1] = test system: NIH 3T3 stable transfectants; test: Analysis of FGF1-induced spheroid formation; conditions: for spheroid formation: 10 ng/ml FGF1, 10 U/ml heparin
Experimental: Clonal populations of NIH 3T3 stable transfectants were resuspended and grown in media containing 10% BCS, 10% BCS containing 1 μM PD166866, 10% BCS containing 10 ng/ml recombinant human FGF1 and 10 U/ml heparin or 10% BCS containing 10 ng/ml recombinant human FGF1, 10 U/ml heparin and 1 μM PD166866 as indicated in the figure legend. Approximately 2×10^5 cells were plated per well (6-well dish) and three days after plating, phase-contrast micrographs of the cells were taken.

[2] = test system: NIH 3T3 stable transfectants; test: Colony formation in soft agar; conditions: for effect on colonies in soft agar: 10 ng/ml FGF1
Experimental: Clonal populations of NIH 3T3 cells stably transfected with vector control, soluble Jagged1 (sJ1), constitutively active Notch1 (caN1), constitutively active Notch2 (caN2), dominant negative Notch 1 (dnN1), dominant negative Notch 2 (dnN2), an oncogenic mutant of FGF1 engineered with the FGF4 signal peptide sequence (hst-β (FGF4):FGF1), or constitutively active oncogenic Ras construct (caRas), were plated on 6 cm tissue culture dishes with 0.5% agar in an overlay containing DMEM (Gibco BRL) media, 10% bovine calf serum (BCS; Hyclone), and 0.33% agar at 1.5×10^3 cells/dish. As indicated, some dishes were also treated with 1 μM of the FGFR1-specific inhibitor, PD166866 (Panek et al., 1998, J. Pharmacol. Exp. Ther. 286: 569-577) and/or 10 ng/ml recombinant human FGF1 and 10 U/ml heparin (Sigma). Cells were fed with 0.5 ml of media with or without FGF1 and/or the FGFR1-specific inhibitor every 3 days as indicated. Twenty days after plating, colonies were stained with p-iodonitrotetrazolium violet (Sigma) for visualization. Quantitation of colony formation was achieved by counting all p-iodonitrotetrazolium violet-stained colonies consisting of more than 4 cells under a Zeiss Stemi SVII Apo dissecting microscope.

[3] = test system: Notch-dependent CSL1 activity in full-length Jagged1 NIH 3T3 cell transfectants; test: Dual Luciferase Reporter Assay of CSL1-dependent transcription
[4] = test system: Swiss 3T3 cells expressing a dominant-negative FGFR1 mutant; test: DNA synthesis assay, (3H)-thymidine autoradiography; conditions: 10 ng/ml FGF1 plus 10 units/ml heparin
Experimental: A combination of (^3H)-thymidine autoradiography and immunohistochemistry was used to evaluate the levels of DNA synthesis in Swiss 3T3 cells expressing a dominant-negative FGFR1 mutant. Swiss 3T3 cells were plated at 50% confluency on glass coverslips precoated with fibronectin (10 μg/cm^2) for 24 hours. The cells were transfected with the pCS2 vector expressing a dominant-negative X. laevis FGFR1 deletion mutant lacking the FGFR1 intracellular domain (a gift from Dr. R. Friesel) using the Fugene 6 reagent (Roche). After 24 hours, the medium was changed to DMEM containing 0.25% BCS and following a 48 hour incubation in low BCS, the cells were stimulated with either 10 μg/ml of α-thrombin, 10% BCS or 10 ng/ml of recombinant FGF1 plus 10 units/ml of heparin. After stimulation for 24 hours, (^3H)-thymidine (NEN; 1 μCi/ml) was added to the medium and cells were incubated for 12 hours and fixed with 4% neutral formaldehyde. […] The percentage of (^3H)-labeled nuclei among the dnFGFR1-positive and dnFGFR1-negative cells was quantitated using an inverted Olympus microscope.
Thus, a dominant-negative (dn) FGFR1 construct was expressed in Swiss 3T3 cells and their proliferative index measured in the presence and absence of exogenous thrombin.

[5] = test system: caN1/CSL transcription in NIH 3T3 transfectants; test: Transient transfection assay of CSL-regulated transcription; conditions: 1, 2.5, 5 or 10 ng/ml FGF1
Experimental: NIH 3T3 cells were plated onto fibronectin-coated (10 μg/cm2) 12-well tissue culture dishes and transiently transfected at approximately 80% confluency with 500 ng of a Luciferase construct activated by 4 tandem copies of the CSL (CBF1) response element (Hsieh et al. 1996, Mol. Cell. Biol. 16: 952-959), 100 ng of the TK Renilla (Promega) construct as an internal control for transfection efficiency, and 500 ng of either vector control, sJ1 or caN1 constructs using Fugene 6 (Roche) per manufacturer's instructions. For analysis of caN1 activity in the background of NIH 3T3 stable lines, vector control, caN1, sJ1 and hst-β(FGF4):FGF1 stable transfectants were plated onto fibronectin-coated (10 μg/cm2) 12-well tissue culture dishes and transiently transfected with 500 ng of the CSL-Luciferase construct, 100 ng of the TK Renilla (Promega) construct as an internal control for transfection efficiency, and 200 ng of caN1. […] The cells were harvested 48 hours after the media change and Luciferase/Renilla activity was measured using Promega's Dual-Luciferase Reporter Assay System. The efficiency of transcription was measured and normalized in relationship to the activity of pRL-TK Renilla and the activity is reported as the ratio of Luciferase/Renilla activity. […]

[6] = test system: Jagged1 in NIH 3T3 stable transfectants; test: Immunoblot analysis of Jagged1 expression; conditions: 10 ng/ml FGF1 and 10 U/ml heparin; all stable lines examined
Experimental: Vector control, SJ1, CaN1, J1, Hstβ(FGF4):FGF1 and sJ1:caN1 stable NIH 3T3 cell transfectants were plated on tissue culture dishes in either normal growth media (DMEM (Gibco BRL) media, 10% bovine calf serum (BCS; Hyclone)) or normal growth media containing 10 ng/ml recombinant FGF1 and 10 U/ml heparin. Cells were harvested at confluency (based on status of vector control cells grown in normal growth media).
Because hst-β(FGF4):FGF1 stable transfectants and the sJ1 transfectants grown in FGF1-containing media form spheroids, all cells were harvested by scraping in the presence of the growth media dn then the cells/growth media was collected into sterile 15 ml conical tubes. Cells were pelleted by centrifugation at 800×g for 5′ at 4° C. After centrifugation, the supernatant was removed and the cell pellets were washed 3× with 1×PBS. Cells were lysed in 500 μl in 20 mM tris, pH 7.5 containing 300 mM sucrose, 60 mM KCl, 15 mM NaCl, 0.5 mM EDTA, 0.5% (v/v) Triton X-100 1 mM Phenymethyl sulfonyl flouride, 0.1% SDS, 2 μg/ml aprotinin, 10 μg/ml aprotinin, 10 μg/ml leupeptin, and 1 mM sodium orthovanadate for 15 minutes on ice. Cell lysates were pelleted and the supernatant containing soluble proteins removed.
Samples were normalized to protein concentration using the BCA Protein Assay Kit (Pierce). […]

Question: Which results are given for COc1cc(OC)cc(-c2cc3cnc(N)nc3nc2NC(=O)NC(C)(C)C)c1 [PD166866]?
Answer: effect on FGF1-induced spheroid formation ([1]; 1 μM PD166866, sJ1, dnN1 and hst-β (FGF4):FGF1 stable transfectants): completely abolished; effect on colony formation ([2]; 1 μM PD166866, caRas cells): no effect; effect on FGF1-mediated colony formation ([2]; 1 μM PD166866, sJ1, dnN1 and hst-β (FGF4):FGF1 transfectants): substantially reduced; effect on small colony growth ([2]; 1 μM PD166866, sJ1 and dnN1 in the absence of FGF1): inhibited

Question: For “FGF1: recombinant human fibroblast growth factor 1, added with heparin”, which “CSL1-dependent transcription, of the control level” value ([3]; 10 ng/ml exogenous FGF1) is on record?
Answer: approximately 25%

Question: What about the “reduction by dnFGFR1 expression of the ability to induce replicating nuclei” value [4] of the same compound?
Answer: approximately 70%

Question: What about the spheroid formation ([1]; Notch-repressed cells (sJ1, dnN1)) of the same compound?
Answer: formed multicellular, spheroid-like structures

Question: What about the spheroid formation ([1]; vector control and caN1 transfectants) of the same compound?
Answer: did not form spheroids

Question: And the “effect on colonies in soft agar” value ([2]; caN1 and vector control transfectants)?
Answer: either no effect or only resulted in the formation of sparse and very small colonies

Question: And the “effect on colonies in soft agar” value ([2]; sJ1 and dnN1 transfectants)?
Answer: greatly exaggerated the size of the colonies

Question: And the “effect on caN1/CSL transcription” value [5]?
Answer: repressed caN1/CSL transcription in a dose-dependent fashion

Question: And the “effect on Jagged1 expression” value [6]?
Answer: increased Jagged1 expression

Question: Which “effect of heparin on thrombin-dependent repression of CSL1-dependent transcription” value ([3]; heparin 5 units/ml with thrombin 10 μg/ml) does the source give for heparin [reference compound] here?
Answer: able to potentiate

Question: What about the “effect on CSL1-dependent transcription” value ([3]; heparin by itself) of the same compound?
Answer: ineffective

Question: And the “effect on CSL1-dependent transcription” value ([3]; heparin in the presence of 10 μM TRAP)?
Answer: ineffective
